Experimental data published in patent US10065965B2, “Imidazo[1,2-B][1,2,4]triazine derivatives as antiparasitic agents” (GlaxoSmithKline Intellectual Property Development Limited, priority 2015, dated 2018).
≈ marks a conversion by molar mass, not a printed value.

Tests used:
[1] = Assay 4 solubility assay, ChemiLuminescent Nitrogen Detection (CLND); type: physicochemical; conditions: phosphate buffered saline, pH 7.4, aqueous buffer, kinetic from dmso stock, pH 7.4 PBS, from 10 mM DMSO stock, 1 h at room temperature
Protocol: A 10 mM DMSO stock solution of the compound was prepared. Solvents and Buffers Organic solvents of HPLC grade were used. Ultra pure water (Milli-Q grade) was used. Buffers were prepared with ultra pure water and filtered using 0.45μ cameo filters. Aqueous Buffer Solution: Phosphate Buffer Saline (PBS) @ pH 7.4 was prepared from Sigma dry powder packs, P-3813. Each one was diluted to 1 liter with deionised water. The pH was checked before the solution was used II. Procedures. • a) DMSO concentration was measured. DMSO blanks and ondansetron and caffeine standards were added to the plate (column 12, A, B, C, & D for the blanks and E, F, G, & H for the standards). Plates were covered with foil. When the UV and CLND detectors baselines appeared to be stable, the CLND was zeroed. • b) Once DMSO concentration measurements were complete, a filtration plate was prepared from each parent plate by diluting 5 μl of the 10 mM DMSO stock solution to […] with pH7.4 PBS. • c) After the plates were prepared, they were covered with a plate lid and left to incubate for 1 h at room temperature. • d) Sample was filtered using MILLIPORE MultiScreen Solubility (MSSLBPC10) Filtration Plates, to NUNC V well plates. The filter plate was removed and the NUNC plate was sealed with a power seal plate seal. • e) HPLC/CLND instruments were set up and left to equilibrate. Mobile phases (MeOH:H2O 1:1, flow rate: 0.2 ml/min, sensitivity z10, Gain High). The samples were run. • f) The assay curve fit was done by linear regression and solubility values were reported in μM.

Trypanosoma cruzi = assay: Assay 6 Trypanosoma cruzi intracellular assay (infected H9C2 cells); type: cell-based; conditions: H9c2, in Rattus norvegicus, 72 h, infected H9C2 rat cardiomyocytes, read-out: pEC50 value against Trypanosoma cruzi (converted)
Protocol: Compounds were dispensed into black 384-well assay plates (Greiner) by acoustic dispensing (LabCyte ECHO). For potency determinations, eleven-point, one in three dilution curves were generated, with a top concentration of 50 μM. H9C2 rat cardiomyocytes cells were dispensed in T225 tissue culture flasks and after 4 hours they were infected during 18 hours with T. cruzi trypomastigotes in the same T225 tissue culture flasks at a multiplicity of infection of 1. Next, any remaining free trypomastigotes were washed away with PBS and the infected H9C2 cells were harvested by trypsinisation. The infected H9C2 cells were then plated into 384-well plates containing the compounds to be tested, at 2500 cells per well in DMEM media with 2% FBS, 1% Penicillin/Streptomocin, 2 mM L-Glutamine, 1 mM Na Pyruvate and 25 mM HEPES. After 72 h incubation at 37° C. in presence of 5% CO2, the plates were fixed and stained with 4% formaldehyde and 2 μM Draq5 for 3 hours at room temperature. The plates were imaged on a Perkin Elmer Opera high-content imaging system using a 20× air objective. Images were analysed using the Acapella building blocks system (Perkin Elmer). The image analysis algorithm first identified the H9C2 nuclei followed by demarcation of the cytoplasm and identification of intracellular amastigotes. This algorithm reported mean number of parasites per H9C2 cell, the percentage of infected H9C2 cells and the total number of H9C2 cells.

| SMILES | solubility at 1 h [1] | EC50 (Trypanosoma cruzi) |
| --- | --- | --- |
| CC(C)c1cnc2nc(-c3cc(NC(=O)N4CCCC4)ccc3F)cn2n1 [Example 13, N-(4-fluoro-3-(2-isopropylimidazo [1,2-b][1,2,4]triazin-6-yl)phenyl)pyrrolidine-1-carboxamide] | 100 to 416 µM (≈ 36.8 to 153 µg/mL) | 5.01 to 631 nM |
| O=C(Nc1ccc(F)c(-c2cn3nc(C4CCOCC4)cnc3n2)c1)N1CCCC1 [Example 15, N-(4-fluoro-3-(2-(tetrahydro-2H-pyran-4-yl)imidazo[1,2-b] [1,2,4]triazin-6-yl)phenyl)pyrrolidine-1-carboxamide] | 100 to 416 µM (≈ 41 to 171 µg/mL) | 5.01 to 631 nM |
| COCCOc1ccccc1-c1cnc2nc(-c3cc(NC(=O)N4CCCC4)ccc3F)cn2n1 [Example 29, N-(4-fluoro-3-(2-(2-(2-methoxyethoxy)phenyl)imidazo[1,2-b][1,2,4]triazin-6-yl)phenyl) pyrrolidine-1-carboxamide] | 10 to 83 µM (≈ 4.77 to 39.6 µg/mL) | 5.01 to 631 nM |
| C=C(C)c1cnc2nc(-c3cc(NC(=O)N4CCCC4)ccc3F)cn2n1 [Example 14, N-(4-fluoro-3-(2-(prop-1-en-2-yl)imidazo [1,2-b][1,2,4]triazin-6-yl)phenyl)pyrrolidine-1-carboxamide] | 10 to 83 µM (≈ 3.66 to 30.4 µg/mL) | 5.01 to 631 nM |
| O=C(Nc1ccc(F)c(-c2cn3nc(N4CCCOCC4)cnc3n2)c1)N1CCCC1 [Example 11, N-(3-(2-(1,4-oxazepan-4-yl)imidazo[1,2-b][1,2,4]triazin-6-yl)-4-fluorophenyl)pyrrolidine-1-carboxamide] |  | 5.01 to 631 nM |
| CC(O)c1cnc2nc(-c3cc(NC(=O)N4CCCC4)ccc3F)cn2n1 (racemic) [Example 24, (+,−)-N-(4-fluoro-3-(2-(1-hydroxyethyl)imidazo [1,2-b][1,2,4]triazin-6-yl)phenyl)pyrrolidine-1-carboxamide] | 100 to 416 µM (≈ 37 to 154 µg/mL) | 5.01 to 631 nM |
| O=C(Nc1ccc(F)c(-c2cn3nc(-c4ccccn4)cnc3n2)c1)N1CCCC1 [Example 35, N-(4-fluoro-3-(2-(pyridin-2-yl)imidazo[1,2-b] [1,2,4]triazin-6-yl)phenyl)pyrrolidine-1-carboxamide] | 10 to 83 µM (≈ 4.03 to 33.5 µg/mL) | 5.01 to 631 nM |
| O=C(Nc1ccc(F)c(-c2cn3nc(CCCO)cnc3n2)c1)N1CCCC1 [Example 25, N-(4-fluoro-3-(2-(3-hydroxypropyl)imidazo [1,2-b][1,2,4]triazin-6-yl)phenyl)pyrrolidine-1-carboxamide] | 100 to 416 µM (≈ 38.4 to 160 µg/mL) | 5.01 to 631 nM |
| Cc1c(-c2cc(NC(=O)N3CCCC3)ccc2F)nc2ncc(N3CCOCC3)nn12 [Example 27, N-(4-fluoro-3-(7-methyl-2-morpholinoimidazo [1,2-b][1,2,4]triazin-6-yl)phenyl)pyrrolidine-1-carboxamide] | 100 to 416 µM (≈ 42.5 to 177 µg/mL) | 5.01 to 631 nM |
| O=C(Nc1ccc(F)c(-c2cn3nc(-c4ccccc4CN4CCOCC4)cnc3n2)c1)N1CCCC1 [Example 20, N-(4-fluoro-3-(2-(2-(morpholinomethyl)phenyl)imidazo[1,2-b] [1,2,4]triazin-6-yl)phenyl)pyrrolidine-1-carboxamide] | 10 to 83 µM (≈ 5.02 to 41.6 µg/mL) | 5.01 to 631 nM |
| O=C(Nc1ccc(F)c(-c2cn3nc(-c4ccc(OCCN5CCOCC5)cc4)cnc3n2)c1)N1CCCC1 [Example 17, N-(4-fluoro-3-(2-(4-(2-morpholinoethoxy)phenyl)imidazo[1,2-b][1,2,4]triazin-6-yl)phenyl) pyrrolidine-1-carboxamide] | 1 to 6 µM (≈ 0.532 to 3.19 µg/mL) | 5.01 to 631 nM |
| O=C(Nc1ccc(F)c(-c2cn3nc(C4CCOC4)cnc3n2)c1)N1CCCC1 (racemic) [Example 23, (+,−)-N-(4-fluoro-3-(2-(tetrahydrofuran-3-yl)imidazo[1,2-b] [1,2,4]triazin-6-yl)phenyl)pyrrolidine-1-carboxamide] |  | 5.01 to 631 nM |
| Cc1c(-c2cccc(NC(=O)N3CCCC3)c2)nc2ncc(N3CCOCC3)nn12 [Example 28, N-(3-(7-methyl-2-morpholinoimidazo [1,2-b][1,2,4]triazin-6-yl)phenyl)pyrrolidine-1-carboxamide] | 100 to 416 µM (≈ 40.7 to 170 µg/mL) | 5.01 to 631 nM |
| COCCOc1ccc(-c2cnc3nc(-c4cc(NC(=O)N5CCCC5)ccc4F)cn3n2)cc1 [Example 21, N-(4-fluoro-3-(2-(4-(2-methoxyethoxy)phenyl)imidazo[1,2-b][1,2,4]triazin-6-yl)phenyl) pyrrolidine-1-carboxamide] |  | 5.01 to 631 nM |
| COc1ccccc1-c1cnc2nc(-c3cc(NC(=O)N4CCCC4)ccc3F)cn2n1 [Example 30, N-(4-fluoro-3-(2-(2-methoxyphenyl)imidazo [1,2-b][1,2,4]triazin-6-yl)phenyl)pyrrolidine-1-carboxamide] | 10 to 83 µM (≈ 4.32 to 35.9 µg/mL) | 5.01 to 631 nM |
| CC(C)Cc1cnc2nc(-c3cc(NC(=O)N4CCCC4)ccc3F)cn2n1 [Example 36, N-(4-fluoro-3-(2-isobutyl-imidazo[1,2-b][1,2,4]triazin-6-yl)phenyl) pyrrolidine-1-carboxamide] | 10 to 83 µM (≈ 3.82 to 31.7 µg/mL) | 5.01 to 631 nM |

The next lines start with results.

| solubility at 1 h [1] | SMILES | EC50 (Trypanosoma cruzi) |
| --- | --- | --- |
| 10 to 83 µM (≈ 4.27 to 35.5 µg/mL) | CC(C)OC(=O)Nc1cnc2nc(-c3cc(NC(=O)N4CCCC4)ccc3F)cn2n1 [Example 54, isopropyl (6-(2-fluoro-5-(pyrrolidine-1-carboxamido)phenyl)imidazo[1,2-b][1,2,4]triazin-2-yl)carbamate] | 5.01 to 631 nM |
| 100 to 416 µM (≈ 41 to 171 µg/mL) | O=C(Nc1ccc(F)c(-c2cn3nc(N4CCNCC4)cnc3n2)c1)N1CCCC1 [Example 56, N-(4-fluoro-3-(2-(piperazin-1-yl)imidazo [1,2-b][1,2,4]triazin-6-yl)phenyl)pyrrolidine-1-carboxamide] | 5.01 to 631 nM |
| 100 to 416 µM (≈ 42.4 to 177 µg/mL) | CN1CCN(c2cnc3nc(-c4cc(NC(=O)N5CCCC5)ccc4F)cn3n2)CC1 [Example 57, N-(4-fluoro-3-(2-(4-methylpiperazin-1-yl)imidazo[1,2-b][1,2,4]triazin-6-yl)phenyl) pyrrolidine-1-carboxamide] | 5.01 to 631 nM |
| 10 to 83 µM (≈ 4.39 to 36.5 µg/mL) | O=C(Nc1cnc2nc(-c3cc(NC(=O)N4CCCC4)ccc3F)cn2n1)C1CCCO1 (stereo not shown) [Example 49, N-(4-fluoro-3-(2-(tetra-hydrofuran-2-carboxamido)imidazo [1,2-b][1,2,4]triazin-6-yl)phenyl)pyrrolidine-1-carboxamide] | 5.01 to 631 nM |
| 10 to 83 µM (≈ 4.09 to 34 µg/mL) | O=C(Nc1cnc2nc(-c3cc(NC(=O)N4CCCC4)ccc3F)cn2n1)C1CC1 [Example 58, N-(3-(2-(cyclopropane-carboxamido)imidazo [1,2-b][1,2,4]triazin-6-yl)-4-fluorophenyl) pyrrolidine-1-carboxamide] | 5.01 to 631 nM |
| 100 to 416 µM (≈ 42.9 to 179 µg/mL) | O=C(Nc1ccc(F)c(-c2nc3ncc(N4CCOCC4)nn3c2F)c1)N1CCCC1 [Example 40, N-(4-fluoro-3-(7-fluoro-2-morpholinoimidazo [1,2-b][1,2,4]triazin-6-yl)phenyl)pyrrolidine-1-carboxamide] | 5.01 to 631 nM |
| 100 to 416 µM (≈ 36.8 to 153 µg/mL) | CC(=O)c1cnc2nc(-c3cc(NC(=O)N4CCCC4)ccc3F)cn2n1 [Example 46, N-(3-(2-acetylimidazo [1,2-b][1,2,4]triazin-6-yl)-4-fluorophenyl) pyrrolidine-1-carboxamide] | 5.01 to 631 nM |
| 10 to 83 µM (≈ 3.99 to 33.1 µg/mL) | COC(=O)Nc1cnc2nc(-c3cc(NC(=O)N4CCCC4)ccc3F)cn2n1 [Example 55, methyl (6-(2-fluoro-5-(pyrrolidine-1-carboxamido)phenyl)imidazo[1,2-b][1,2,4]triazin-2-yl)carbamate] | 5.01 to 631 nM |
| 10 to 83 µM (≈ 3.8 to 31.6 µg/mL) | CC(C)=Cc1cnc2nc(-c3cc(NC(=O)N4CCCC4)ccc3F)cn2n1 [Example 47, N-(4-fluoro-3-(2-(2-methylprop-1-en-1-yl)imidazo[1,2-b][1,2,4]triazin-6-yl)phenyl) pyrrolidine-1-carboxamide] | 5.01 to 631 nM |
| 100 to 416 µM (≈ 39.7 to 165 µg/mL) | O=C(Nc1ccc(F)c(-c2cn3nc(N4CCOCC4)cnc3n2)c1)N1CCC1 [Example 42, N-(4-fluoro-3-(2-morpholinoimidazo [1,2-b][1,2,4]triazin-6-yl)phenyl)azetidine-1-carboxamide] | 5.01 to 631 nM |
